Results published in patent US20230322723A1, “COMPOUNDS FOR SUPPRESSING EGFR MUTANT CANCER AND PHARMACEUTICAL USE THEREOF” (J2H BIOTECH INC., priority 2020, published 2023).

Tests used:
[1] = system: EGFR^del19+T790M+C797S; assay: EGFR protein degradation test (Western blot) in Ba/F3 cells expressing mutant EGFR del19+T790M+C797S (DTC); assay type: cell-based; settings: compounds at 0.1 μM and 1 μM, 24 hours, Western blot with EGFR antibody
Description: (§1) The ability of the compounds of the present invention to degrade the mutant EGFR protein was confirmed in Ba/F3 cells expressing normal EGFR, mutant EGFR^del19+T790M+C797S or mutant EGFR^L858R+T790M+C797S. A Western blot test using the EGFR antibody was performed.
(§2) Specifically, Ba/F3 cells expressing EGFR were cultured in RPMI 1640 (Gibco, NY, USA) containing 10% fetal bovine serum (FBS, Gibco, NY, USA). Cells expressing normal EGFR, mutant EGFR^del19+T790M+C797S or mutant EGFR^L858R+T790M+C797S were treated with the compounds of the present invention at concentrations of 0.1 μM and 1 μM, respectively, for 24 hours. After that, it was washed twice with phosphate buffered saline (PBS) and SDS-PAGE was performed with 30 μg of cell lysate. After the protein separated on the gel was transferred to a nitrocellulose membrane, the expression level of the EGFR protein was confirmed using an EGFR antibody (Santa Cruz biotechnology, Santacruz, CA, USA). EGFR bands separated by Western blotting were quantitatively analyzed with Fluo-S MultiImager (Bio-Rad, Hercules, CA, USA).

[2] = target: T1, EGFR^L858R+T790M+C797S (Homo sapiens, UniProt P00533, C797S/L858R/T790M); assay: EGFR protein degradation test (Western blot) in Ba/F3 cells expressing mutant EGFR L858R+T790M+C797S (LTC); assay type: cell-based; settings: compounds at 0.1 μM and 1 μM, 24 hours, Western blot with EGFR antibody
T1 construct: expressed in transfected cells; host or cells: Ba/F3
Description: as §1, §2

T1 sequence (P00533 25-1210 T790M/C797S/L858R): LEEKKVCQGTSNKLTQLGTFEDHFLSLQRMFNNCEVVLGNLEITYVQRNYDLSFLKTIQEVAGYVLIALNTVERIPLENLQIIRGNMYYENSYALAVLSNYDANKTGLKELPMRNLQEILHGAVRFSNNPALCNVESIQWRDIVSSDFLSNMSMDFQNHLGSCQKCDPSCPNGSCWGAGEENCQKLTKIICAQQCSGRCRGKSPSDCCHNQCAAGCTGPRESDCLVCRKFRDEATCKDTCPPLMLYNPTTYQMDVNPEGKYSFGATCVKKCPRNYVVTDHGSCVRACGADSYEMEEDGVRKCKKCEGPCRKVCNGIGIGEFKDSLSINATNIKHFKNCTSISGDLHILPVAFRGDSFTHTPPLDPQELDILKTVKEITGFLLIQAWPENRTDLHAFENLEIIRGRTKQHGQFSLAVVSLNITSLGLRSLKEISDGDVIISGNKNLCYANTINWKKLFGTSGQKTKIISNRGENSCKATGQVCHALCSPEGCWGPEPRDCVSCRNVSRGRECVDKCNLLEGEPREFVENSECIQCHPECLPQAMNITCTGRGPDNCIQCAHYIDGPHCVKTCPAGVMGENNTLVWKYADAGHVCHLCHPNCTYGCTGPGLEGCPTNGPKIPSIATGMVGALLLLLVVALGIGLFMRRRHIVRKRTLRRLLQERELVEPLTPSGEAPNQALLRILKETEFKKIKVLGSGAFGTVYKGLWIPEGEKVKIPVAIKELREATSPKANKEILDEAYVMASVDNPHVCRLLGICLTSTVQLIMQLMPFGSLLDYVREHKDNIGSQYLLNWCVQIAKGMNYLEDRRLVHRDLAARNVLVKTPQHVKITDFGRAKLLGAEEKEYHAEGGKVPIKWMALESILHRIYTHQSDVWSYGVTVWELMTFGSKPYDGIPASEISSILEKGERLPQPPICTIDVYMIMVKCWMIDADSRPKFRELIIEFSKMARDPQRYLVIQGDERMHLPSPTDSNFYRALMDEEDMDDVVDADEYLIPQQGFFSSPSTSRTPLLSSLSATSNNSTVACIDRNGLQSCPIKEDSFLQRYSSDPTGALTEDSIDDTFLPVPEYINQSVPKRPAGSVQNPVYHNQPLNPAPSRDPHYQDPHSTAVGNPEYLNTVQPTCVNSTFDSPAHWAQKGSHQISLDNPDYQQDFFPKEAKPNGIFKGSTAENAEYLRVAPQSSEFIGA

COc1cc(N2CCC3(CCN(CC(=O)N[C@H](C(=O)N4C[C@H](O)CC4C(=O)NCc4ccc(-c5scnc5C)cc4)C(C)(C)C)CC3)CC2)ccc1Nc1ncc(Cl)c(Nc2ccccc2N(C)S(C)(=O)=O)n1 (stereo in doubt) [Compound 31, (2R,4R)-1-((S)-2-(2-(9-(4-((5-chloro-4-((2-(N-methylmethylsulfonamido)phenyl)amino)pyrimidin-2-yl)amino)-3-methoxyphenyl)-3,9-diazaspiro[5,5]undecan-3-yl)acetamido)-3,3-dimethylbutanoyl)-4-hydroxy-N-(4-(4-methylthiazol-5-yl)benzyl)pyrrolidin-2-carboxamide]
DTC (EGFR^del19+T790M+C797S) protein degradation [1]: ++ (Protein degradation > 80%)
LTC (EGFR^L858R+T790M+C797S) protein degradation [2]: + (Protein degradation 20~80%)

COc1cc(N2CCN(CC3CCN(CC(=O)N[C@H](C(=O)N4C[C@H](O)CC4C(=O)NCc4ccc(-c5scnc5C)cc4)C4CC4)CC3)CC2)ccc1Nc1ncc(Cl)c(Nc2ccccc2N(C)S(C)(=O)=O)n1 (stereo in doubt) [Compound 55, (2R,4R)-1-((S)-2-(2-(4-((4-(4-((5-chloro-4-((2-(N-methylmethylsulfonamido)phenyl)amino)pyrimidin-2-yl)amino)-3-methoxyphenyl)piperazin-1-yl)methyl)piperidin-1-yl)acetamido)-2-cyclopropylacetyl)-4-hydroxy-N-(4-(4-methylthiazol-5-yl)benzyl)pyrrolidin-2-carboxamide]
DTC (EGFR^del19+T790M+C797S) protein degradation [1]: − (Protein degradation < 20%)
LTC (EGFR^L858R+T790M+C797S) protein degradation [2]: − (Protein degradation < 20%)

COc1cc(N2CCN(CC3CCN(CC(=O)N[C@H](C(=O)N4C[C@H](O)CC4C(=O)NCc4ccc(-c5scnc5C)cc4)C(C)C)CC3)CC2)ccc1Nc1ncc(Cl)c(Nc2ccccc2N(C)S(C)(=O)=O)n1 (stereo in doubt) [Compound 56, (2R,4R)-1-((2-(4-((4-(4-((5-chloro-4-((2-(N-methylmethylsulfonamido)phenyl)amino)pyrimidin-2-yl)amino)-3-methoxyphenyl)piperazin-1-yl)methyl)piperidin-1-yl)acetyl)-L-valyl)-4-hydroxy-N-(4-(4-methylthiazol-5-yl)benzyl)pyrrolidin-2-carboxamide]
DTC (EGFR^del19+T790M+C797S) protein degradation [1]: + (Protein degradation 20~80%)
LTC (EGFR^L858R+T790M+C797S) protein degradation [2]: − (Protein degradation < 20%)

COc1cc(N2CCN(CCCCC(=O)Nc3cccc4c3C(=O)N(C3CCC(=O)NC3=O)C4=O)CC2)ccc1Nc1ncc(Cl)c(Nc2ccccc2N(C)S(C)(=O)=O)n1 (centres unmarked) [Compound 1, 5-(4-(4-((5-chloro-4-((2-(N-methylmethylsulfonamido)phenyl)amino)pyrimidin-2-yl)amino)-3-methoxyphenyl)piperazin-1-yl)-N-(2-(2,6-dioxopiperidin-3-yl)-1,3-dioxoisoindolin-4-yl)pentanamide]
DTC (EGFR^del19+T790M+C797S) protein degradation [1]: − (Protein degradation < 20%)
LTC (EGFR^L858R+T790M+C797S) protein degradation [2]: − (Protein degradation < 20%)

COc1cc(N2CCC(N3CCN(CCCCC(=O)Nc4cccc5c4C(=O)N(C4CCC(=O)NC4=O)C5=O)CC3)CC2)ccc1Nc1ncc(Cl)c(Nc2ccccc2N(C)S(C)(=O)=O)n1 (centres unmarked) [Compound 2, 5-(4-(1-(4-((5-chloro-4-((2-(N-methylmethylsulfonamido)phenyl)amino)pyrimidin-2-yl)amino)-3-methoxyphenyl)piperidin-4-yl)piperazin-1-yl)-N-(2-(2,6-dioxopiperidin-3-yl)-1,3-dioxoisoindolin-4-yl)pentanamide]
DTC (EGFR^del19+T790M+C797S) protein degradation [1]: + (Protein degradation 20~80%)
LTC (EGFR^L858R+T790M+C797S) protein degradation [2]: − (Protein degradation < 20%)

COc1cc(N2CCC(N(C)CCCCOc3cccc4c3C(=O)N(C3CCC(=O)NC3=O)C4=O)CC2)ccc1Nc1ncc(Cl)c(Nc2ccccc2N(C)S(C)(=O)=O)n1 (centres unmarked) [Compound 3, N-(2-((5-chloro-2-((4-(4-((4-((2-(2,6-dioxopiperidin-3-yl)-1,3-dioxoisoindolin-4-yl)oxy)butyl)(methyl)amino)piperidin-1-yl)-2-methoxyphenyl)amino)pyrimidin-4-yl)amino)phenyl)-N-methylmethanesulfonamide]
DTC (EGFR^del19+T790M+C797S) protein degradation [1]: − (Protein degradation < 20%)
LTC (EGFR^L858R+T790M+C797S) protein degradation [2]: − (Protein degradation < 20%)

COc1cc(N2CCN(CCCCCCCCCCC(=O)Nc3cccc4c3C(=O)N(C3CCC(=O)NC3=O)C4=O)CC2)ccc1Nc1ncc(Cl)c(Nc2ccccc2N(C)S(C)(=O)=O)n1 (centres unmarked) [Compound 4, 11-(4-(4-((5-chloro-4-((2-(N-methylmethylsulfonamido)phenyl)amino)pyrimidin-2-yl)amino)-3-methoxyphenyl)piperazin-1-yl)-N-(2-(2,6-dioxopiperidin-3-yl)-1,3-dioxoisoindolin-4-yl)undecanamide]
DTC (EGFR^del19+T790M+C797S) protein degradation [1]: − (Protein degradation < 20%)
LTC (EGFR^L858R+T790M+C797S) protein degradation [2]: − (Protein degradation < 20%)

COc1cc(N2CCC(N3CCN(CCCCCCCCCCC(=O)Nc4cccc5c4C(=O)N(C4CCC(=O)NC4=O)C5=O)CC3)CC2)ccc1Nc1ncc(Cl)c(Nc2ccccc2N(C)S(C)(=O)=O)n1 (centres unmarked) [Compound 5, 11-(4-(1-(4-((5-chloro-4-((2-(N-methylmethylsulfonamido)phenyl)amino)pyrimidin-2-yl)amino)-3-methoxyphenyl)piperidin-4-yl)piperazin-1-yl)-N-(2-(2,6-dioxopiperidin-3-yl)-1,3-dioxoisoindolin-4-yl)undecanamide]
DTC (EGFR^del19+T790M+C797S) protein degradation [1]: − (Protein degradation < 20%)
LTC (EGFR^L858R+T790M+C797S) protein degradation [2]: − (Protein degradation < 20%)

COc1cc(N2CCN(CCCCC(=O)N[C@H](C(=O)N3C[C@H](O)C[C@@H]3C(=O)NCc3ccc(-c4scnc4C)cc3)C(C)(C)C)CC2)ccc1Nc1ncc(Cl)c(Nc2ccccc2N(C)S(C)(=O)=O)n1 [Compound 6, (2R,4R)-1-((S)-2-(5-(4-(4-((5-chloro-4-((2-(N-methylmethylsulfonamido)phenyl)amino)pyrimidin-2-yl)amino)-3-methoxyphenyl)piperazin-1-yl)pentanamido)3,3-dimethylbutanoyl)4-hydroxy-N-(4-(4-methylthiazol-5-yl)benzyl)pyrrolidin-2-carboxamide]
DTC (EGFR^del19+T790M+C797S) protein degradation [1]: + (Protein degradation 20~80%)
LTC (EGFR^L858R+T790M+C797S) protein degradation [2]: − (Protein degradation < 20%)

COc1cc(N2CCC(N3CCN(CCCCC(=O)N[C@H](C(=O)N4C[C@H](O)C[C@@H]4C(=O)NCc4ccc(-c5scnc5C)cc4)C(C)(C)C)CC3)CC2)ccc1Nc1ncc(Cl)c(Nc2ccccc2N(C)S(C)(=O)=O)n1 [Compound 7, (2R,4R)-1-((S)-2-(5-(4-(1-(4-((5-chloro-4-((2-(N-methylmethylsulfonamido)phenyl)amino)pyrimidin-2-yl)amino)-3-methoxyphenyl)piperidin-4-yl)piperazin-1-yl)pentanamido)-3,3-dimethylbutanoyl)-4-hydroxy-N-(4-(4-methylthiazol-5-yl)benzyl)pyrrolidin-2-carboxamide]
DTC (EGFR^del19+T790M+C797S) protein degradation [1]: + (Protein degradation 20~80%)
LTC (EGFR^L858R+T790M+C797S) protein degradation [2]: − (Protein degradation < 20%)

COc1cc(N2CCN(CCOCCOCC(=O)Nc3cccc4c3C(=O)N(C3CCC(=O)NC3=O)C4=O)CC2)ccc1Nc1ncc(Cl)c(Nc2ccccc2N(C)S(C)(=O)=O)n1 (centres unmarked) [Compound 8, 2-(2-(2-(4-(4-((5-chloro-4-((2-(N-methylmethylsulfonamido)phenyl)amino)pyrimidin-2-yl)amino)-3-methoxyphenyl)piperazin-1-yl)ethoxy)ethoxy)-N-(2-(2,6-dioxopiperidin-3-yl)-1,3-dioxoisoindolin-4-yl)acetamide]
DTC (EGFR^del19+T790M+C797S) protein degradation [1]: − (Protein degradation < 20%)
LTC (EGFR^L858R+T790M+C797S) protein degradation [2]: − (Protein degradation < 20%)

COc1cc(N2CCC(N3CCN(CCOCCOCC(=O)Nc4cccc5c4C(=O)N(C4CCC(=O)NC4=O)C5=O)CC3)CC2)ccc1Nc1ncc(Cl)c(Nc2ccccc2N(C)S(C)(=O)=O)n1 (centres unmarked) [Compound 9, 2-(2-(2-(4-(1-(4-((5-chloro-4-((2-(N-methylmethylsulfonamido)phenyl)amino)pyrimidin-2-yl)amino)-3-methoxyphenyl)piperidin-4-yl)piperazin-1-yl)ethoxy)ethoxy)-N-(2-(2,6-dioxopiperidin-3-yl)-1,3-dioxoisoindolin-4-yl)acetamide]
DTC (EGFR^del19+T790M+C797S) protein degradation [1]: − (Protein degradation < 20%)
LTC (EGFR^L858R+T790M+C797S) protein degradation [2]: − (Protein degradation < 20%)

COc1cc(N2CCN(CCOCCOCC(=O)N[C@H](C(=O)N3C[C@H](O)C[C@@H]3C(=O)NCc3ccc(-c4scnc4C)cc3)C(C)(C)C)CC2)ccc1Nc1ncc(Cl)c(Nc2ccccc2N(C)S(C)(=O)=O)n1 [Compound 10, (2R,4R)-1-((S)-2-(2-(2-(2-(4-(4-((5-chloro-4-((2-(N-methylmethylsulfonamido)phenyl)amino)pyrimidin-2-yl)amino)-3-methoxyphenyl)piperazin-1-yl)ethoxy)ethoxy)acetamido)-3,3-dimethylbutanoyl)-4-hydroxy-N-(4-(4-methylthiazol-5-yl)benzyl)pyrrolidin-2-carboxamide]
DTC (EGFR^del19+T790M+C797S) protein degradation [1]: − (Protein degradation < 20%)
LTC (EGFR^L858R+T790M+C797S) protein degradation [2]: − (Protein degradation < 20%)
